Laboratory results: patent publication US6887879B2, “Pharmaceutical combination of antiviral agents” (priority 1999, dated 2005)
Read-outs that look alike come from different tables or passages of the source.

Legend:
[1] = Cytotoxicity, [3H]-thymidine uptake, HSF; type: cell-based; settings: human, human skin fibroblasts (HSF)
Experimental: (§1) The cellular toxicity of the BCH compounds were assessed on various cells using [^3H]-thymidine uptake. The various cells, including Molt-4, HT1080, DU-145, HepG 2 and HSF, were plated at a concentration of 1-2×10^3 cells per well (96 well plates). However, PHA-stimulated PBMCs were cultured at a concentration of 4×10^4. After a 24 hr incubation period, 10-fold serial diluted compounds (10^−4 M to 10^−10 M) were added to the culture medium and the cells were further incubated for 72 hrs. [^3H]-thymidine was added during the final 18 hr incubation period. After incubation with the [^3H]-thymidine, the cells were washed once with PBS, treated with trypsin it the cells were adherent, and then resuspended in water (hypotonic lysing of cells) The cellular extract was applied directly to a Tomtec Harvester 96. Using this instrument the extracted DNA is adsorbed onto filters, washed and the incorporated [^3H]-thymidine is then counted.

[2] = Cytotoxicity, [3H]-thymidine uptake, HT-1080; type: cell-based; settings: human, HT-1080 cells
Experimental: as §1

[3] = Cytotoxicity, [3H]-thymidine uptake, PBMC; type: cell-based; settings: human, PHA-stimulated PBMCs
Experimental: as §1

[4] = Cytotoxicity, [3H]-thymidine uptake, Molt-4; type: cell-based; settings: human, Molt-4 cells
Experimental: as §1

[5] = tested on: HIV-1 clinical isolate 4526; test: Antiviral assay, HIV-1 clinical isolate 4526, CBMCs; type: cell-based; settings: Human immunodeficiency virus 1, naive
Experimental: (§2) HIV-1IIIB laboratory strain and HXB2-D recombinant of HIV-1 were kindly supplied by R. C. Gallo (Institute of Human Virology, Baltimore, Md.). […] The recombinant viruses were generated by transfection of proviral DNA into MT-4 cells with Lipofectamine using the protocol recommended by the manufacturer .(Gibco BRL, Montreal, Canada). […] Stock viruses were prepared from clarified culture supernatants by centrifugation and stored at −70° C. The viruses were titrated by limited dilution with a 4-fold serial dilution.
(§3) The population of HIV-1 in infected individual is quasispecies and the sensitivity of these different viruses found in clinical isolates to antiviral chemotherapy might be quite variable. In addition, HIV-1 isolates obtained from patients receiving long-term antiretroviral therapy might behave differently from cloned virus containing genetically engineered mutations in the RT gene. For these reasons, clinical isolates of HIV-1 from antiviral naive and drug-treated patients were assayed in PHA-stimulated CBMCs for their sensitivity to DXG and DAPD accompanied with approved antiretroviral agents. The genotype of the HIV-1 clinical isolates were determined as described above.

[6] = tested on: recombinant HXB2-D 74V; test: microbe, parasite or virus in culture; type: cell-based, HIV-1; settings: Human immunodeficiency virus 1, HXB2, read-out: EC50 in CBMCs
Experimental: as §2

[7] = tested on: recombinant HXB2-D 10R/46I/63P/82T/84V; test: microbe, parasite or virus in culture; type: cell-based, HIV-1; settings: Human immunodeficiency virus 1, HXB2, read-out: EC50 in CBMCs
Experimental: as §2

[8] = tested on: recombinant HXB2-D 41L/215Y/184V; test: microbe, parasite or virus in culture; type: cell-based, HIV-1; settings: Human immunodeficiency virus 1, HXB2, read-out: EC50 in CBMCs
Experimental: as §2

[9] = tested on: recombinant HXB2-D 184V; test: microbe, parasite or virus in culture; type: cell-based, HIV-1; settings: Human immunodeficiency virus 1, HXB2, read-out: EC50 in CBMCs
Experimental: as §2

[10] = tested on: recombinant HXB2-D 41L/70R/215Y/219Q; test: microbe, parasite or virus in culture; type: cell-based, HIV-1
Experimental: as §2

[11] = tested on: recombinant HXB2-D 65R; test: microbe, parasite or virus in culture; type: cell-based, HIV-1; settings: Human immunodeficiency virus 1, HXB2, read-out: EC50 in CBMCs
Experimental: as §2

[12] = tested on: recombinant HXB2-D WT; test: microbe, parasite or virus in culture; type: cell-based, HIV-1; settings: Human immunodeficiency virus 1, HXB2, read-out: EC50 in CBMCs
Experimental: as §2

[13] = tested on: HIV-1 clinical isolate 4877; test: microbe, parasite or virus in culture; type: cell-based; settings: Human immunodeficiency virus 1, read-out: EC50 in CBMCs
Experimental: as §2, §3

[14] = tested on: HIV-1 clinical isolate 3350; test: microbe, parasite or virus in culture; type: cell-based
Experimental: as §2, §3

[15] = tested on: HIV-1 clinical isolate 4205; test: microbe, parasite or virus in culture; type: cell-based
Experimental: as §2, §3

[16] = tested on: HIV-1 clinical isolate 4833; test: microbe, parasite or virus in culture; type: cell-based; settings: Human immunodeficiency virus 1, therapy Saquinavir (48 weeks), read-out: EC50 in CBMCs
Experimental: as §2, §3

[17] = tested on: HIV-1 clinical isolate 3887; test: microbe, parasite or virus in culture; type: cell-based; settings: Human immunodeficiency virus 1, read-out: EC50 in CBMCs
Experimental: as §2, §3

[18] = tested on: HIV-1 clinical isolate 4924; test: microbe, parasite or virus in culture; type: cell-based; settings: Human immunodeficiency virus 1, read-out: EC50 in CBMCs
Experimental: as §2, §3

[19] = tested on: HIV-1 clinical isolate 4242; test: microbe, parasite or virus in culture; type: cell-based
Experimental: as §2, §3

[20] = tested on: HIV-1IIIB; test: Anti-HIV-1 antiviral assay, laboratory strain HIV-1IIIB, RT activity in culture supernatants
Experimental: Most experiments were performed with a laboratory strain HIV-1III. […] The cells were incubated with virus using the indicated multiplicity of infection (MOI) for 2-3 hrs. The MOI used for each experiment was dependent upon the cell line and virus strain used, and was generally in the range of 0.005 to 0.5. For example, in assays performed using the established cell line MT-2, HIV-1IIIB at an MOI of 0.005 was used to infect cells. The unbound virus was then removed by washing the cells, followed by plating the cells into a 96-well plate. The infected cells were cultured in the presence of a serial concentrations of the test compound for 5-7 days. The anti-HIV-1 efficacy was determined by testing for HIV-1 RT activity in the cell culture supernatants. All assays were performed in duplicate and at least two independent experiments were performed. […] The susceptibilities of the HIV-1 variants to antiretroviral agents are expressed as the mean of the EC50 determinations.

[21] = Cytotoxicity, [3H]-thymidine uptake, HepG2; type: cell-based; settings: human, HepG2 cells
Experimental: as §1

[22] = Cytotoxicity, [3H]-thymidine uptake, DU145; type: cell-based; settings: human, DU145 cells
Experimental: as §1

[23] = tested on: HIV-1 clinical isolate 4246; test: Antiviral assay, HIV-1 clinical isolate 4246, CBMCs; type: cell-based; settings: Human immunodeficiency virus 1, read-out: EC50 in CBMCs
Experimental: as §2, §3

[24] = Human immunodeficiency virus 1, read-out: EC50 in CBMCs

## Nc1nc(N)c2ncn([C@H]3CO[C@@H](CO)O3)c2n1 [DAPD, (−)- -D-2,6-diaminopurine-1,3-dioxolane]
[1]
  CC50 at 72 h: > 500 µM
[2]
  CC50 at 72 h: > 500 µM
[3]
  CC50 at 72 h: > 500 µM
[4]
  CC50 at 72 h: > 500 µM
[5]
  EC50: 0.85 ± 0.071 µM
[6]
  EC50: 6.6 ± 3.4 µM
[7]
  EC50: 1.37 ± 0.06 µM
[8]
  EC50: 2.3 ± 0.05 µM
[9]
  EC50: 2.1 ± 0.2 µM
[10]; 41L, 70R, 215Y and 219Q, CBMCs, also observed in MT-2 cells
  sensitivity of AZT resistant virus, in words: remained completely sensitive
[10]; Human immunodeficiency virus 1, HXB2, read-out: EC50 in CBMCs
  EC50: 1.25 ± 0.59 µM
[11]
  EC50: 6.5 ± 2.1 µM
[12]
  EC50: 1.1 ± 0.16 µM
[13]
  EC50: 0.26 µM
[14]; [24]
  EC50: 3.3 ± 1.2 µM
[14]; isolate 3350, 184V
  decreased susceptibility compared to the lamivudine and AZT sensitive isolates: ~5 fold
[15]; [24]
  EC50: 4.1 ± 0.35 µM
[15]; isolate 4205, 184V
  decreased susceptibility compared to the lamivudine and AZT sensitive isolates: ~5 fold
[16]
  EC50: 0.63 ± 0.38 µM
[17]
  EC50: 0.19 ± 0.12 µM
[18]
  EC50: 0.17 µM
[19]; 41L/70R/215Y in RT
  sensitivity of isolate 4242, in words: remained sensitive
[19]; [24]
  EC50: 0.88 ± 0.3 µM
[20]; Human immunodeficiency virus 1, H9, read-out: EC50, mean values ± SD
  EC50: 0.075 ± 0.04 µM
[20]; Human immunodeficiency virus 1, Jurkat, read-out: EC50, mean values ± SD
  EC50: 1.37 ± 0.72 µM
[20]; Human immunodeficiency virus 1, MT2, read-out: EC50, mean values ± SD
  EC50: 0.54 µM
[20]; Human immunodeficiency virus 1, MT4, read-out: EC50, mean values ± SD
  EC50: 0.94 ± 0.028 µM
[20]; Human immunodeficiency virus 1, U-937
  EC50: 1.3 µM
[20]; Human immunodeficiency virus 1, read-out: EC50, mean values ± SD
  EC50: 0.97 µM
[20]; various cells
  EC50 fold higher than those for DXG: 5-20 fold
[21]
  CC50 at 72 h: > 500 µM
[22]
  CC50 at 72 h: > 500 µM
[23]
  EC50: 0.41 ± 0.02 µM
